# “Also recorded” adds a separate entry of the source.
# Columns and labels:
# [1] = tested on: human CD34+ hematopoietic progenitors; test: Intracellular Ca2+ measurement in Fura-2 loaded human CD34+ hematopoietic progenitors; format: cell-based; settings: human CD34+ cells, agonist stimulation
# Method: Human BMSCs were loaded with Fura-2 and the cells were stimulated with AVP, or OXT. Intracellular Ca^2+ concentration was assayed as described before (Ely, J. A. et al. J Biol Chem 266, 18635-18641 (1991). To study their response to AVP and specific AVP receptor agonists and antagonists human CD34+ hematopoietic progenitors were Fura-2 loaded and Cytoplasmic Ca2+ measurements were performed in cells kept in suspension using a fluorescence spectrophotometer (Deltascan, Photon Technology International). Ratiometric measurements were recorded at 340/380 nm excitation and 500 nm emission and the ratios were plotted against time. Ionomycin (10 μM) was added at the end of each run to determine the maximum fluorescence ratio.
# [2] = tested on: CD34^+ cells from healthy donors; test: CFU assay (E-CFU, GM-CFU) of human CD34+ cells in Methocult; format: cell-based; settings: per 1000 plated CD34+ cells; 10^−8 M
# Method: CD34^+ cells from healthy donors were plated into semi-solid methylcellulose medium (Methocult) containing hematopoietic factors (GM-CSF 5 ng/ml, IL-3 5 ng/ml, SCF 50 ng/ml, EPO 2.5 U/ml).
# The number of erythroid colony forming units (E-CFU) and granulocyte-macrophage colony forming units (GM-CFU) were determined based on morphological criteria on 7th and 14th days in culture.
# [3] = tested on: CD34^+ human hematopoietic progenitor cells; test: cAMP measurement in CD34+ human hematopoietic progenitor cells; format: cell-based; settings: AVP 10^−10 M vs non-stimulated cells
# Source text: For cAMP measurements in CD34^+ human hematopoietic progenitor cells derived from two donors. The cAMP femto 2 kit (Cat#62AM5PEB, Cisbio) was used according to manufacturers instructions. The measurements were done on a Wallac Victor2 1420 multilabel counter (Perkin Elmer).
# mice [4] = test: Phenylhydrazine (hemolytic) anemia model; format: in vivo, mouse; settings: day 2 and day 4
# Method: Phenylhydrazine, a known hemolytic agent, was injected intraperitoneally by administration of phenylhydrazine hydrochloride ip. 50 mg/kg body wt. (injection volume range of 100-150 μls) on day 0 and 1 and then mice were implanted with ALZET micro-osmotic pumps as described above to deliver AVP or vehicle. Blood samples were taken at 2, 4 and in some cases 6 and 14 days later to determine hematocrit and corrected reticulocyte values.
# mice [5] = test: EPO neutralization study in hemorrhage; format: in vivo, mouse
# Method: To infuse vasopressin into the mice, AVP filled ALZET pumps were implanted subcutaneously on the dorsal aspect of the neck (5 ug/day, Alzet 1007D—7 days, 2002-14 days). Vasopressin was also given immediately and 6 hours later as a bolus injection (100 μg/kg). Alzet pumps were inserted subcutaneously. The dimensions and pump specification are: ALZET, (DURECT Corporation, Cupertino, Calif., USA) mini-osmotic pump models 1007D or 2002. The pumps deliver 0.5 μl/h of the desired substance for a for 2-week period. In some cases, erythropoietin antibody (100 μg/mice) was given before anesthesia with the corresponding control antibody. […] Following the initial hemorrhage blood samples were taken at 2, 4 and in some cases 6 days later to determine hematocrit and corrected reticulocyte values.
# In some cases Erythropoietin antibody (100 μg/mice) was given before anesthesia with the corresponding control antibody.
# BM erythroid cells = test: Bone marrow erythroid populations after injection of AVP, AVPR1B agonist or EPO (flow cytometry, EdU); format: in vivo, mouse
# Method: In vivo AVP-treated/hemorrhaged/control mice were IP injected with 10 μM/1000 g BW 5-ethynyl-2′-deoxyuridine (EdU: Life Technologies) for 2 hours. Single cell suspensions from the tibial and femoral bone marrows of mice (n=5 in each group) were prepared. After lysing the cells with ACK buffer, cells of the erythroid lineage were labeled with antibodies against TER-119 (BD Pharmingen) and CD71 (BD Pharmingen) or CD44 (BD Pharmingen) conjugated with FITC or PE fluorophores. After washing with FACS buffer, cells were fixed/permeabilized according to the manufacturer's recommendation (Life Technologies). Incorporated EdU molecules were visualized by a click reaction with Alexa Fluor 647-conjugated picolyl-azide and cell nuclei were stained with DAPI. Cell cycle characteristics of erythroid cells were detected with a Beckman-Coulter MoFlo Astrios flow cytometer.
# For lineage negative, Sca-1 positive and c-kit positive (LSK) cell sorting, rat anti-mouse lineage antibodies (anti CD4, CD8, B220, Ter119, Gr-1, CD11b) were added to bone marrow cell suspension after ACK lysis and cells were depleted using anti-rat magnetic beads (Biomag anti rat IgG, Qiagen). Lineage negative cells were stained with c-kit PE/Cy5 and Sca-1-FITC antibodies and the double positive population was further enriched with anti-PE and anti-FITC magnetic beads (Miltenyi). LSK cells were sorted on a DAKO Cytomation MoFlo cell sorter. For LSK subpopulation sorting lineage depleted cells were stained for c-kit, Sca-1, CD48, CD150 and CD34 and 4 LSK subpopulations were sorted using the gating strategy described by Wilson et al. (34). Sorted cells from HSC (LSK, CD34^−, CD48^−, CD150^+), MPP1 (LSK, CD34^+, CD48^−, CD150^+), MPP2 (LSK, CD34^+, CD48^+, CD150^+) and MPP3/4 (LSK, CD34^+, CD48^+, CD150^−) subpopulations were plated in 1×PBS onto coated glass slides fixed with 2% PFA and immunostained for AVPR1B. Erythropoietic progenitors were sorted based on CD71 and Ter119 markers. All cells were sorted using a MoFlo Astrios cell sorter (Beckman Coulter). Competitive Repopulation Assay
# The inventors determined that AVP induced a fast hematocrit response in severe anemia that is independent of EPO. AVP receptors in the HSPCs was confirmed and they next decided to examine how AVP affects the erythroid lineage cells (developmental stages) in the BM. […] In cell populations sorted as above, the presence of AVPR1B and EPO receptor (EPOR) mRNA using QPCR was also determined. […] AVPR2 mRNA was detected in all populations, whereas AVPR1A mRNA was barely detectable.
# WT mice = test: AVP infusion in unmanipulated WT mice; format: in vivo, mouse; settings: infused over a 3 week period
compound,measurement,setting,value
"NC(=O)CC[C@@H]1NC(=O)[C@H](Cc2ccccc2)NC(=O)[C@H](Cc2ccc(O)cc2)NC(=O)[C@@H](N)CSSC[C@@H](C(=O)N2CCC[C@H]2C(=O)N[C@@H](CCCN=C(N)N)C(=O)NCC(N)=O)NC(=O)[C@H](CC(N)=O)NC1=O [AVP, [Arg8]-Vasopressin]",intracellular calcium levels,[1],increases in their intracellular calcium levels; also recorded: increase in intracellular calcium; also recorded: increased intra-cellular Ca^2+ concentrations
same,erythroid-colony forming unit (E-CFU) numbers,[2],significantly increased; also recorded: increased erythroid colony formation
same,granulocyte macrophage-colony forming unit (GM-CFU) numbers,[2],increased both E-CFU and GM-CFU in another
same,cAMP in human CD34+ progenitors,[3],moderate increase in cAMP
same,"outcome measures (hematocrit, corrected reticulocytes)",mice [4],significantly improved outcome measures on day 2 and to some extent on day 4
same,CR numbers,"mice [5]; EPO neutralized group, day 6",began to increase CR numbers
same,CR values over PBS,"mice [5]; EPO neutralized, day 4",eliminated this difference
same,hematocrit values,"mice [5]; after EPO neutralization, hemorrhage",significantly increased hematocrit values
same,CR values over PBS,"mice [5]; control mice, day 4 and 6",increased the CR values over PBS
same,"corrected reticulocyte (CR) values, EPO neutralized or control groups, AVP or PBS",mice [5]; day 2,no significant difference
same,"BM erythroid progenitors (Ter-119, CD 71 gated area)",BM erythroid cells; 16 hours after injection,clear increase in progenitors
same,apoptosis in the late progenitor populations,"BM erythroid cells; EdU, Annexin V and DAPI",significant decrease in apoptosis
same,effect on more matured erythroid populations,"BM erythroid cells; after hemorrhage, AVP vs EPO",much more robust effect than EPO
same,numbers of more mature erythroid cells (polychromatic and orthochromatic erythroblasts/reticulocytes),"BM erythroid cells; bone marrow, flow cytometry",significantly increased
same,RBC numbers,WT mice,gradually increased RBC numbers

# — patent US10172911B2, “Methods of modulating erythropoiesis with arginine vasopressin receptor 1B molecules” (The United States of America, as represented by the …, priority 2013, dated 2019)
